In patent US20260256772A1, “BENZOTHIAZOLE COMPOUND AND USE THEREOF” (NANJING REJU THERAPEUTICS, INC., priority 2022, published 2026):

Experiments:
[1] = system: hepatic fibrosis; test: Hepatic fibrosis mouse model (CCl4); assay type: in vivo, C57BL/6N mice; conditions: FIG. 9; for serum alanine aminotransferase (ALT) levels / serum aspartate aminotransferase (AST) levels: intraperitoneal (IP) injection twice a week from third week of modelling; for pathology scores: intraperitoneal (IP) injection, liver Masson staining
Description: In this test example, the efficacy of the compounds of the present disclosure was tested on hepatic fibrosis in an animal model of hepatic fibrosis. Briefly, C57BL/6N mice, male, 7 to 8 weeks old, 24 to 28 g of body weight, were used. The mouse model of hepatic fibrosis was induced by intraperitoneal injection of CCl4 solution at a dosage of 1 mL/kg, with a dosing frequency of 2 times/week, and a modelling cycle of 6 weeks. Dosing via intraperitoneal injection was started starting from the third week of modelling twice a week. At the end of the test, serum was collected, and liver tissue was taken for Masson staining index assay.

[2] = system: hypertrophic scars; test: Rabbit ear hypertrophic scar model; assay type: in vivo, New Zealand white rabbits; conditions: 150 μM, 100 μL injected into each lesion once a week, 4 injections, FIG. 12
Description: In this test example, the efficacy of the compounds of the present disclosure was tested on hypertrophic scars in a rabbit ear hypertrophic scar animal model. Briefly, 15 New Zealand white rabbits, male, 3 months old, were used. The New Zealand rabbits were anaesthetized with sodium pentobarbital and six circular full-thickness wounds with a diameter of 10 mm were made on the ventral surface of each ear by removing the epidermis, dermis and perichondrium to expose the cartilage. The rabbits were randomly divided into control, RX001 experimental and RX301 experimental groups. On postoperative day 14, after complete re-epithelialization of the wound surface, the compound (150 μM, 100 μL, dissolved in DMSO solution) or negative control DMSO 100 μL was injected into the center of each lesion from the wound edge once a week for a total of 4 injections. Improvement of scar formation by the drugs was assessed by SEI (Scar Excess Index).

[3] = system: idiopathic pulmonary fibrosis; test: Idiopathic pulmonary fibrosis animal model (bleomycin); assay type: in vivo, SD rats; conditions: intraperitoneal (IP) 5 mg/kg, 3 consecutive weeks, FIG. 6; for pathology scores: H&E and Masson staining; for WBC: alveolar lavage fluid; for HYP: lung tissue
Description: In this test example, the efficacy of the compounds of the present disclosure was tested on idiopathic pulmonary fibrosis in an idiopathic pulmonary fibrosis animal model. Briefly, anesthetized 6-week-old SD rats were fixed on a foam board with medical tape. Firstly, the skin on the surface of the trachea was cut with surgical scissors to fully expose the trachea, and a 100-microlitre micro-syringe containing a certain volume of bleomycin (BLM 5 mg/kg) solution drawn based on the body weight of the rat was inserted into the trachea through the oral cavity to administer by slow bolus injection. After administration of the BLM solution, the foam plate was immediately rotated and shaken to distribute the BLM solution as evenly as possible in the lung tissue. Then the skin on the surface of the trachea was sutured with surgical sutures and about 0.5 to 1.0 mL of penicillin solution was dripped onto the epidermis to prevent infection of the surgical wound. After the 7th day of modelling, the compound solution of the present disclosure was administered via intraperitoneal (IP) injection (5 mg/kg) according to the weight of the rat for 3 consecutive weeks. Rats were euthanized by carbon dioxide on Day 28, the lung tissues were removed, the left alveolar lavage fluid was collected for white blood cell (WBC) counting, the right lung tissue portion was used for hydroxyproline (HYP) assay, and the remaining lung tissues were stained for pathology by H&E staining and Masson staining.

[4] = system: Alzheimer's disease; test: Alzheimer's disease APP×PS1 transgenic mouse model; assay type: in vivo; conditions: intraperitoneal injection, 11 consecutive weeks, twice a week, FIG. 8
Description: In this test example, the efficacy of the compounds of the present disclosure was tested on Alzheimer's disease in an animal model of Alzheimer's disease. Briefly, a transgenic mouse model of APP×PS1 (purchased from Cyagen Biosciences) was selected, and the compound of the present disclosure was administered by intraperitoneal injection for 11 consecutive weeks, twice a week. Alterations in amyloid in the cerebral cortex of the mice were observed.

[5] = system: aging skin; test: Aging skin, naturally aging mouse model; assay type: in vivo, C57bl/6J mice; conditions: skin application twice a week for 6 consecutive weeks, FIG. 10
Description: In this test example, aged female C57bl/6J mice (22 months old) were used. The drug was administered by skin application twice a week for 6 consecutive weeks.

[6] = system: senescent cells; test: Senescent cell killing, CellTiter-Glo cell viability; assay type: cell-based, human, mouse; conditions: activity of killing senescent cells; cell type not specified
From the text: In this test example, human non-small cell lung cancer cell line (A549 cells), human embryonic lung fibroblast cell line (IMR90 cells), human retinal pigment epithelial cells (RPE cells), mouse chondrocytes, and mouse skin fibroblasts were selected. The above cells were induced by etoposide ([…]) to obtain their senescent cells. The effect of the target compounds on the viability of normal and senescent cells above was examined, thus assessing the specific killing effect of the compounds on senescent cells above.
Briefly, senescent and normal cells above were selected and plated separately (96-well plates). […] 2A to 2E.

[7] = system: diabetic retinopathy; test: Mouse model of diabetic retinopathy (STZ), retinal Evans blue penetration assay; assay type: in vivo; conditions: intravitreal (IVT), 1 μL of 200 μM at 8 and 9 weeks after STZ, FIG. 4
Description: The efficacy of the compounds of the present disclosure was studied in a mouse model of diabetic retinopathy by multiple administrations of streptozotocin (STZ). C57BL/6J mice at 6 to 7 weeks were weighed and their baseline blood glucose was measured (Sino). STZ (Sigma-Alderich) was injected intraperitoneally into the mice at 55 mg/Kg for five consecutive days. Age-matched controls were injected with buffer only. Blood glucose was measured again one week after the last STZ injection. 1 μL of the test compound (200 μM, a suspension formulated in 0.015% polysorbate 80, 0.2% sodium phosphate, 0.75% sodium chloride, pH 7.2) was injected intravitreally into the STZ-treated diabetic C57BL/6J mice at 8 and 9 weeks after STZ administration. 10 weeks after STZ treatment, the retinal Evans blue penetration assay was performed.

[8] = system: osteoarthritis; test: Osteoarthritis animal model; assay type: in vivo, mice; conditions: intra-articular injection, FIG. 7
Description: In this test example, the efficacy of the compounds of the present disclosure was tested on osteoarthritis in an osteoarthritis animal model.
The osteoarthritis animal model was constructed by the following steps. The mice were anesthetized with isoflurane, and fixed. The hair on the right hind limb of the mice was shaved and the skin was disinfected with alcohol, and the skin of the joints was cut. Under an optical microscope, the inside of the right knee joint was incised longitudinally with a blade, without cutting the patellar ligament. The patellar ligament was pulled to one side with constant hemostasis by compression with sterile cotton swabs such that the joint cavity was fully exposed. Saline was added dropwise in time to avoid the drying up of the joint cavity. The excess muscle tissue was gently separated with a blunt forceps to expose the meniscus ligament. The anterior cruciate ligament was found in the depth of the joint cavity and cut with a micro scissor. Then the wound was disinfected with penicillin solution, the muscle was sutured with sterile needle and thread, and the skin tissue was finally sutured. The efficacy of the drug was determined by intra-articular injection administration. At the endpoint of the test, continued pain threshold of the plantar was detected, and the bone joints were stained with safranin fast green.

Row | SMILES | serum alanine aminotransferase (ALT) levels [1] | serum aspartate aminotransferase (AST) levels [1] | pathology scores [1] | scar excess index [2] | pathology scores [3] | WBC [3] | HYP [3] | Aβ42 pathogenic protein indicators [4] | epidermal thickness scores of the skins [5] | IC50 [6] [µM] | vascular permeability, choroidal vascular leakage [7] | vascular permeability, retinal vascular leakage [7] | pathology scores of safranin fast green staining [8] | plantar mechanical pain threshold [8]
1 | CCN1CCN(C(=O)c2nc(N3CCc4cccc(C(=O)Nc5nc6ccccc6s5)c4C3)ccc2-c2cnn(CC34CC5CC(CC(C5)C3)C4)c2C)CC1 [RX001] | statistically significant improvements | statistically significant improvements | statistically significant improvements | statistically significant improvement | statistically significant improvements | statistically significant improvements | statistically significant improvements | statistically significant improvements | statistically significant improvements | 0.2 to 1 | improved | improved | statistically significant improvements | statistically significant improvements
2 | Cc1c(-c2ccc(N3CCc4cccc(C(=O)Nc5nc6ccccc6s5)c4C3)nc2C(=O)N2CCC(CCOP(=O)(O)O)CC2)cnn1CC12CC3CC(CC(C3)C1)C2 [RX301] | statistically significant improvements | statistically significant improvements | statistically significant improvements | statistically significant improvement | statistically significant improvements | statistically significant improvements | statistically significant improvements | statistically significant improvements | statistically significant improvements | < 0.2 | improved | improved | statistically significant improvements | statistically significant improvements
